The text below walks through data of patent publication EP1285920A1, “C10 Ester sustituted taxanes as antitumor agents” (Florida State University Research Foundation, Inc., priority 2001, dated 2003).

Bounds are passed on as bounds.

In the first test the test system is HCT116. Briefly: In Vitro cytotoxicity measured by the cell colony formation assay. As to conditions: HCT116 colony formation; 72 h with drug, colonies counted after 7 days; ID50 = concentration producing 50% inhibition of colony formation; read-out: IN VITRO ID 50 HCT116. It is filed as cell-based, human. The method in brief:
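Four hundred cells per dish in McCoy's 5a medium with 10% FBS were allowed to attach for 5 h at 37 °C. They were then exposed to compound for 72 h at 37 °C, added as a 10× stock made fresh in medium. After HBSS rinsing and refeeding, colonies were counted after 7 days.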
For the compound `CC=CC(=O)OC1C(=O)C2(C)C(O)CC3OCC3(OC(C)=O)C2C(OC(=O)c2ccccc2)C2(O)CC(OC(=O)C(O)C(NC(=O)OC(C)(C)C)C(C)C)C(C)=C1C2(C)C` (stereo not shown) [Compound 2413], the IC50 was less than 10 nM. For `CC=CC(=O)OC1C(=O)C2(C)C(O)CC3OCC3(OC(C)=O)C2C(OC(=O)c2ccccc2)C2(O)CC(OC(=O)C(O)C(C=C(C)C)NC(=O)OC(C)(C)C)C(C)=C1C2(C)C` (stereo not shown) [Compound 2332], the IC50 was less than 1 nM. Take `CC=CC(=O)NC(c1cccs1)C(O)C(=O)OC1CC2(O)C(OC(=O)c3ccccc3)C3C4(OC(C)=O)COC4CC(O)C3(C)C(=O)C(OC(=O)CCC)C(=C1C)C2(C)C` (stereo not shown) [Compound 3595]: the IC50 was less than 1 nM. Regarding `CC=CC(=O)OC1C(=O)C2(C)C(O)CC3OCC3(OC(C)=O)C2C(OC(=O)c2ccccc2)C2(O)CC(OC(=O)C(O)C(NC(=O)OC(C)(C)C)c3ccoc3)C(C)=C1C2(C)C` (stereo not shown) [Compound 2380], the IC50 is less than 1 nM.

Staying with this test, now noted: Homo sapiens, HCT-116; read-out: IN VITRO ID 50 HCT116.
For `CCOC(=O)N[C@@H](c1ccco1)[C@@H](O)C(=O)O[C@H]1C[C@@]2(O)[C@@H](OC(=O)c3ccccc3)[C@@H]3[C@]4(OC(C)=O)CO[C@@H]4C[C@H](O)[C@@]3(C)C(=O)[C@H](OC(=O)CC)C(=C1C)C2(C)C` [Compound 3535], the IC50 was less than 1 nM.

For `CCC(=O)O[C@H]1C(=O)[C@@]2(C)[C@H]([C@H](OC(=O)c3ccccc3)[C@]3(O)C[C@H](OC(=O)[C@H](O)[C@@H](NC(=O)OCC(C)C)c4ccsc4)C(C)=C1C3(C)C)[C@]1(OC(C)=O)CO[C@@H]1C[C@@H]2O` [Compound 4711], the IC50 is less than 10 nM.

On to `CCCC(=O)O[C@H]1C(=O)[C@@]2(C)[C@H]([C@H](OC(=O)c3ccccc3)[C@]3(O)C[C@H](OC(=O)[C@H](O)[C@@H](NC(=O)OC(C)(C)C)C4CCC4)C(C)=C1C3(C)C)[C@]1(OC(C)=O)CO[C@@H]1C[C@@H]2O` [Compound 1044], for which the IC50 was less than 1 nM.

For the compound `C/C=C/C(=O)N[C@@H](c1ccco1)[C@@H](O)C(=O)O[C@H]1C[C@@]2(O)[C@@H](OC(=O)c3ccccc3)[C@@H]3[C@]4(OC(C)=O)CO[C@@H]4C[C@H](O)[C@@]3(C)C(=O)[C@H](OC(=O)CC)C(=C1C)C2(C)C` [Compound 3982], the IC50 was less than 1 nM. Take `CC(=O)O[C@@]12CO[C@@H]1C[C@H](O)[C@@]1(C)C(=O)[C@H](OC(=O)C=C(C)C)C3=C(C)[C@@H](OC(=O)[C@H](O)[C@@H](NC(=O)OC(C)(C)C)c4ccco4)C[C@@](O)([C@@H](OC(=O)c4ccccc4)[C@H]21)C3(C)C` [Compound 2488]: the IC50 was less than 1 nM. `CC(=O)O[C@@]12CO[C@@H]1C[C@H](O)[C@@]1(C)C(=O)[C@H](OC(=O)C3CC3)C3=C(C)[C@@H](OC(=O)[C@H](O)[C@@H](NC(=O)c4ccco4)c4cccs4)C[C@@](O)([C@@H](OC(=O)c4ccccc4)[C@H]21)C3(C)C` [Compound 3297]: the IC50 was less than 1 nM. On to `CC(=O)O[C@@]12CO[C@@H]1C[C@H](O)[C@@]1(C)C(=O)[C@H](OC(=O)C=C(C)C)C3=C(C)[C@@H](OC(=O)[C@H](O)[C@H](C=C(C)C)NC(=O)OC(C)(C)C)C[C@@](O)([C@@H](OC(=O)c4ccccc4)[C@H]21)C3(C)C` [Compound 2455], for which the IC50 is less than 10 nM. Same read-out and setting: then `CCC(=O)O[C@H]1C(=O)[C@@]2(C)[C@H]([C@H](OC(=O)c3ccccc3)[C@]3(O)C[C@H](OC(=O)[C@H](O)[C@@H](NC(=O)OC(C)(C)C)c4ccsc4)C(C)=C1C3(C)C)[C@]1(OC(C)=O)CO[C@@H]1C[C@@H]2O` [Compound 0562], with less than 1 nM. The same measure, in the same setting: then `CC(=O)OC12COC1CC(O)C1(C)C(=O)C(OC(=O)C(C)C)C3=C(C)C(OC(=O)C(O)C(NC(=O)OC(C)(C)C)c4ccccn4)CC(O)(C(OC(=O)c4ccccc4)C21)C3(C)C` (stereo not shown) [Compound 2238], with less than 1 nM; and `CC(=O)O[C@@]12CO[C@@H]1C[C@H](O)[C@@]1(C)C(=O)[C@H](OC(=O)c3cccs3)C3=C(C)[C@@H](OC(=O)[C@H](O)[C@@H](NC(=O)OC(C)(C)C)c4cccnc4)C[C@@](O)([C@@H](OC(=O)c4ccccc4)[C@H]21)C3(C)C` [Compound 1948], with less than 10 nM. On the same count and under the same terms, next, `CC(=O)O[C@@]12CO[C@@H]1C[C@H](O)[C@@]1(C)C(=O)[C@H](OC(=O)C=C(C)C)C3=C(C)[C@@H](OC(=O)[C@H](O)[C@@H](NC(=O)OC(C)(C)C)c4ccccc4)C[C@@](O)([C@@H](OC(=O)c4ccccc4)[C@H]21)C3(C)C` [Compound 2520]: less than 10 nM; `CCCC(=O)O[C@H]1C(=O)[C@@]2(C)[C@H]([C@H](OC(=O)c3ccccc3)[C@]3(O)C[C@H](OC(=O)[C@H](O)[C@@H](NC(=O)OC(C)(C)C)C4CC4)C(C)=C1C3(C)C)[C@]1(OC(C)=O)CO[C@@H]1C[C@@H]2O` [Compound 1020]: less than 1 nM.

Turning to `CCCC(=O)O[C@H]1C(=O)[C@@]2(C)[C@H]([C@H](OC(=O)c3ccccc3)[C@]3(O)C[C@H](OC(=O)[C@H](O)[C@@H](NC(=O)OCC(C)C)c4ccoc4)C(C)=C1C3(C)C)[C@]1(OC(C)=O)CO[C@@H]1C[C@@H]2O` [Compound 4704], the IC50 is less than 10 nM. With `CC(=O)O[C@@]12CO[C@@H]1C[C@H](O)[C@@]1(C)C(=O)[C@H](OC(=O)C3CC3)C3=C(C)[C@@H](OC(=O)[C@H](O)[C@@H](NC(=O)c4cccnc4)c4cccs4)C[C@@](O)([C@@H](OC(=O)c4ccccc4)[C@H]21)C3(C)C` [Compound 4112], the IC50 was less than 10 nM. For the compound `CCCC(=O)O[C@H]1C(=O)[C@@]2(C)[C@H]([C@H](OC(=O)c3ccccc3)[C@]3(O)C[C@H](OC(=O)[C@H](O)[C@@H](NC(=O)C=C(C)C)c4cccs4)C(C)=C1C3(C)C)[C@]1(OC(C)=O)CO[C@@H]1C[C@@H]2O` [Compound 4344], the IC50 is less than 1 nM. With `CC(=O)OC12COC1CC(O)C1(C)C(=O)C(OC(=O)C(C)C)C3=C(C)C(OC(=O)C(O)C(NC(=O)OC(C)(C)C)c4ccsc4)CC(O)(C(OC(=O)c4ccccc4)C21)C3(C)C` (stereo not shown) [Compound 2291], the IC50 is less than 1 nM.

On to `CCCC(=O)N[C@@H](c1ccco1)[C@@H](O)C(=O)O[C@H]1C[C@@]2(O)[C@@H](OC(=O)c3ccccc3)[C@@H]3[C@]4(OC(C)=O)CO[C@@H]4C[C@H](O)[C@@]3(C)C(=O)[C@H](OC(=O)C3CC3)C(=C1C)C2(C)C` [Compound 4062], for which the IC50 is less than 1 nM.

`CC(=O)O[C@@]12CO[C@@H]1C[C@H](O)[C@@]1(C)C(=O)[C@H](OC(=O)C3CC3)C3=C(C)[C@@H](OC(=O)[C@H](O)[C@@H](NC(=O)c4cccs4)c4ccco4)C[C@@](O)([C@@H](OC(=O)c4ccccc4)[C@H]21)C3(C)C` [Compound 3663]: the IC50 is less than 1 nM. Take `CCC(=O)OC1C(=O)C2(C)C(O)CC3OCC3(OC(C)=O)C2C(OC(=O)c2ccccc2)C2(O)CC(OC(=O)C(O)C(NC(=O)OC(C)(C)C)c3ccoc3)C(C)=C1C2(C)C` (stereo not shown) [Compound 5495]: the IC50 is less than 1 nM. Take `CC(=O)O[C@@]12CO[C@@H]1C[C@H](O)[C@@]1(C)C(=O)[C@H](OC(=O)C3CC3)C3=C(C)[C@@H](OC(=O)[C@H](O)[C@@H](NC(=O)c4ccccc4)c4ccccc4)C[C@@](O)([C@@H](OC(=O)c4ccccc4)[C@H]21)C3(C)C` [Compound 0937]: the IC50 is less than 10 nM.

As to `CC(=O)O[C@@]12CO[C@@H]1C[C@H](O)[C@@]1(C)C(=O)[C@H](OC(=O)c3cccs3)C3=C(C)[C@@H](OC(=O)[C@H](O)[C@@H](NC(=O)OC(C)(C)C)c4ccccn4)C[C@@](O)([C@@H](OC(=O)c4ccccc4)[C@H]21)C3(C)C` [Compound 1883], the IC50 is less than 10 nM.
